Assay results: patent US5622942A, “Percutaneous absorptive anesthetic” (priority 1993, dated 1997)

What was measured:
[1] = Lidocaine blood concentration after application of ointment to the rat abdomen (fluorescence polarization immunoassay); assay type: in vivo, Wistar rat
Description: (1) Experimental Animal Wistar rat a. Aqueous gel ointment containing 2% of lidocaine. b. Aqueous gel ointment containing 10% of lidocaine. c. Aqueous gel ointment in (b) containing 3% of compound 4. e. Aqueous gel ointment in (a) containing 3% of compound 4. […] Group with an ointment a applied. Group with an ointment e applied. […] Group with an ointment c applied. Group with 3% Azone (Trademark registered)--10% lidocaine aqueous gel-ointment applied. […] In these groups, the rats had their body portion covered with a polyethylene food wrapping sheet at an area where an ointment was applied, and sealed by means of transparent tape. Then, a blood was withdrawn through a cannula which had been inserted into the carotid. The blood was pretreated with a heparin and separated by means of centrifugal separator to obtain blood plasma. A fluorescence polarization immunoassay was used to determine the concentration of the lidocaine in the blood.

[2] = Acute toxic examination (LD50), oral, rat; conditions: in vivo
Experimental: The results of acute toxic examination (LD50) which was carried out with the rat through the oral dose of the compound were follows.

skin [3] = assay: Preparatory pinprick test of skin anesthesia effect, 3% absorption promoter and 2% lidocaine aqueous gel-ointment; assay type: in vivo, healthy adult (human); conditions: for time at which effect of the skin anesthesia began / time of complete skin anesthesia: after application, 3% promoter + 2% lidocaine; for skin anesthesia effect, in words: pinprick, up to 4 hours after application
Experimental: Same as that in the experimental example 1.
A preparatory experiment was carried out to verify the skin anesthesia effect of various lidocaine aqueous gel-ointments when they are applied in the quantity of 0.3 g/4 cm^2.
Pinprick test was carried out to compare results utilizing lidocaine aqueous gel-ointment which was prepared by mixing the ointments d-h, Xylocaine Jelly (Trademark registered, containing 2% lidocaine, made by Fujisawa Pharmaceutical Co., Ltd.), Azone, a known percutaneous absorption promoter, sodium caprate (to be indicated as Cap Na hereinafter) and isopropyl myristate (to be indicated as IPM hereinafter).
The skin over which various ointments were applied was pierced several times using a 26 gauge intradermal needle at the time of 1, 1.5, 2, 3 and 4 hours after the application, and the degree of pain felt by the adult was evaluated according to a criterion given below.
++ No pain felt at the area where the ointment was applied.
+ Pain felt at some portions.
- Pain felt at that area.

skin [4] = assay: Double-blind pinprick procedure pain score at the vein puncture area in patients; assay type: in vivo, patient (human); conditions: ointment c versus ointment b, p<0.05
Experimental: A patient who was to receive an operation.
The sponge was applied over an area in which the vein is punctured in accordance with a double-blind assay method. The area was sealed off with a transparent tape, and the topical reaction and the painless effect occurring on the skin were compared about 1 hour later.
The following pain score was employed as a criterion.
When the pain score was zero, the needle was pierced into the skin about 1.0 mm deep to verify the pain.

CCCCCCCCCCCCN1CCCCCC1=O [Azone, reference compound]
absorption promoting effect (lidocaine blood concentration) ([1]; rat, in vivo): no major effect of improving absorption was found

CC1(C)[C@@H](OC(=O)CCC(=O)O)CC[C@]2(C)[C@H]3C(=O)C=C4[C@@H]5C[C@@](C)(C(=O)O)CC[C@]5(C)CC[C@@]4(C)[C@]3(C)CC[C@@H]12 [Compound 3, Glycyrrhetic acid 3β-monohemisuccinate]
LD50 [2]: 520 mg/kg
time at which effect of the skin anesthesia began (skin [3]): 1.5 h
time of complete skin anesthesia (skin [3]): 2 h

CC1(C)[C@@H](OC(=O)c2ccccc2C(=O)O)CC[C@]2(C)[C@H]3C(=O)C=C4[C@@H]5C[C@@](C)(C(=O)O)CC[C@]5(C)CC[C@@]4(C)[C@]3(C)CC[C@@H]12 [Compound 4, Glycyrrhetic acid 3β-monohemiphthalate]
lidocaine blood concentration ([1]; 2% lidocaine ointments (groups 1 and 2), with or without 3% compound 4): any significant result was not observed
absorption promoting effect (lidocaine blood concentration) ([1]; 10% lidocaine aqueous gel ointment (groups 3-5), 3% promoter, up to five hours): an absorption promoting effect of the compound 4 was acknowledged
effect in removing the pain of the skin, in words (skin [4]): effective in removing the pain of the skin
LD50 [2]: 1320 mg/kg
time at which effect of the skin anesthesia began (skin [3]): 1.5 h
time of complete skin anesthesia (skin [3]): 2 h

CC1(C)[C@@H](OC(=O)c2ccccc2C(=O)O)CC[C@]2(C)[C@H]3CC=C4[C@@H]5C[C@@](C)(COC(=O)c6ccccc6C(=O)O)CC[C@]5(C)CC[C@@]4(C)[C@]3(C)CC[C@@H]12 [Compound 5, 18β-olean-12-ene-3 β, 30-diol-3 β, 30-dihemiphthalate]
LD50 [2]: 1260 to 1520 mg/kg
skin anesthesia effect, in words (skin [3]): skin anesthesia effect substantially equal to that by Azone

CC1(C)[C@@H](OC(=O)c2ccccc2C(=O)O)CC[C@]2(C)C3=CC=C4[C@@H]5C[C@@](C)(COC(=O)c6ccccc6C(=O)O)CC[C@]5(C)CC[C@@]4(C)[C@]3(C)CC[C@@H]12 [Compound 6, 18β-olean-9(11), 12-diene-3 β, 30-diol-3 β, 30-dihemiphthalate]
LD50 [2]: 1280 to 1500 mg/kg
skin anesthesia effect, in words (skin [3]): skin anesthesia effect substantially equal to that by Azone

CC1(C)[C@@H](OC(=O)c2ccccc2C(=O)O)CC[C@]2(C)[C@H]3C=CC4=C5C[C@@](C)(COC(=O)c6ccccc6C(=O)O)CC[C@]5(C)CC[C@@]4(C)[C@]3(C)CC[C@@H]12 [Compound 7, Olean-11,13(18)-diene-3 β, 30-diol-3 β, 30-dihemiphthalate]
LD50 [2]: 628 to 793 mg/kg
time at which effect of the skin anesthesia began (skin [3]): 1.5 h
time of complete skin anesthesia (skin [3]): 2 h
